In series [1] the test system is induced-diabetic rats. The experiment in a line: Antihyperglycemic activity: fall in fasting blood glucose in alloxan-induced diabetic rats. The series is classed as in vivo, rat (Sprague Dawley).
The nature of series [2]: Mortality, behaviour and acute toxicity signs in injected diabetic rats. The series is classed as in vivo, rat (Sprague Dawley). As to conditions: insulin 20 units/kg b.w.
The subject of series [3] is Candida albicans ATCC10231. Description: Kirby-Bauer disc diffusion. It is filed as cell-based. Particulars: reference antibiotic disc, 100 units/disc. An excerpt:
(§1) Experimental procedures include the following steps: • 1.

Series [4] deals with Cryptococcus neoformans ATCC90112. The experiment in a line: Kirby-Bauer disc diffusion. It is filed as cell-based. As to conditions: reference antibiotic disc, 100 units/disc.
Description: as §1

In the case of “insulin: insulin from bovine pancreas (≧27 units/mg)”, the “fasting blood glucose (FBG)” value was “sharp significant decrease (p<0.001)” in series [1] (after two hours of injection) and “returned to the diabetic state” in series [1] (insulin 10 units/kg b.w, after 8 hours of treatment). Moreover, the “difference between normal rats and treated diabetic rats” value in series [1] (at either dose) is given as “No significant difference”. For the same molecule, the hypoglycemia and mortality entry in series [2] is given as “hypoglycemic condition in all rats leading to the death of one rat”.
With `C[C@@H]1[C@H](O)[C@@H](C)/C=C/C=C/CC/C=C/C=C/C=C/C=C/C(O[C@H]2O[C@H](C)[C@@H](O)[C@H](N)[C@@H]2O)CC2O[C@](O)(CC(O)C(O)CCC(O)CC(O)CC(O)CC(=O)O[C@H]1C)CC(O)C2C(=O)O` (stereo partly drawn) [Nystatin, nystatin], the “Zone of inhibition (mm) C. albicans” value in series [3] was 10 mm. Further, the “Zone of inhibition (mm) C. neoformance” value in series [4] is 9 mm.

For the origin of these results see patent US8501241B1, “Treating cancer with a whole, leech saliva extract” (priority 2012, dated 2013).
